In brackets after ≈: the same amount, converted by molar mass.
Tests used:
Syk = Syk (Homo sapiens (Human), UniProt P43405); assay: Syk enzyme inhibition, Z-LYTE FRET; assay type: biochemical
Protocol: (§1) The enzyme inhibitory activities of the compound disclosed herein are determined by FRET using synthetic peptides labelled with both donor and acceptor fluorophores (Z-LYTE, Invitrogen Ltd., Paisley, UK).
The inhibitory activities of the compound of the invention against c-Src and Syk enzymes (Invitrogen), are evaluated in a similar fashion to that described hereinabove. The relevant enzyme (3000 ng/mL or 2000 ng/mL respectively, 2.5 μL) is incubated with the test compound (either 1 μg/mL, 0.1 μg/mL, 0.01 μg/mL, or 0.001 μg/mL, 2.5 μL each) for 2 hr at RT. The FRET peptides (8 μM, 2.5 μL), and appropriate ATP solutions (2.5 μL, 800 μM for c-Src, and 60 μM ATP for Syk) are then added to the enzymes/compound mixtures and the mixture incubated for 1 hr. Development reagent (protease, 5 μL) is added for 1 hr prior to detection in a fluorescence microplate reader (Varioskan® Flash, ThermoFisher Scientific).
(§2) In all cases, the site-specific protease cleaves non-phosphorylated peptide only and eliminates the FRET signal. Phosphorylation levels of each reaction are calculated using the ratio of coumarin emission (donor) over fluorescein emission (acceptor), for which high ratios indicate high phosphorylation and low ratios indicate low phosphorylation levels.

[1] = Solubility in fasted-state simulated colonic fluid (FaSSCoF); assay type: physicochemical
Protocol: The solubility of the compound of the invention in FaSSCoF at pH 6.5 is determined using a modification of a previously-reported procedure (Vertzoni, M., et al. Pharm. Res. 2010, 27, 2187-2196). In place of the bile salt extract employed in the original procedure (which extract is no longer available), the modified procedure uses a mixture of sodium taurochlorate (0.15 g), glycocholic acid (0.15 g), ursodeoxycholic acid (0.05 g), cholic acid (0.05 g), and glycodeoxycholic acid (0.05 g). These five bile acids are ground together with a mortar and pestle to produce a fine white powder that is incorporated into the FaSSCoF, as outlined below.
FaSSCoF medium: Tris(hydroxymethyl)aminomethane (Tris; 0.275 g) and maleic acid (0.44 g) are dissolved in water (35 mL) to give a solution whose pH is adjusted to 6.5 by treatment with 0.5M NaOH (ca. 12 mL). The solution is then made up to 50 mL with water. A portion of this Tris/maleate buffer solution (ca. 25 mL) is added to a 0.5 L round-bottomed flask, before being treated with 0.00565 g of the bile acid mixture described above. Solutions of phosphatidylcholine (0.0111 g) in DCM (0.15 mL) and palmitic acid (0.0013 g) in DCM (0.15 mL) are added, then the organic solvent is evaporated off under reduced pressure at 40° C. until a clear solution, with no perceptible DCM odour, is achieved. The volume of the evaporated solution is adjusted to 50 mL by addition of the remainder of Tris/maleate buffer, then BSA (0.115 g) is added, before being dissolved by gentle agitation.
Solubility Determination: Test compounds are suspended in the pH 6.5 FaSSCoF medium to give a maximum final concentration of 2-10 mg/mL. The suspensions are equilibrated at 25° C. for 24 h, before being filtered through a glass fibre C filter. The filtrates are then diluted as appropriate for injection and quantification by HPLC with reference to a standard. Different volumes of the standard, diluted and undiluted sample solutions are injected and the solubilities are calculated using the peak areas determined by integration of the peak found at the same retention time as the principal peak in the standard injection.

GSK3α = GSK3α (Homo sapiens (Human), UniProt P49840); assay: GSK3α enzyme inhibition (Method 2), Z-LYTE FRET; assay type: biochemical
Sequence of GSK3α (P49840 whole entry): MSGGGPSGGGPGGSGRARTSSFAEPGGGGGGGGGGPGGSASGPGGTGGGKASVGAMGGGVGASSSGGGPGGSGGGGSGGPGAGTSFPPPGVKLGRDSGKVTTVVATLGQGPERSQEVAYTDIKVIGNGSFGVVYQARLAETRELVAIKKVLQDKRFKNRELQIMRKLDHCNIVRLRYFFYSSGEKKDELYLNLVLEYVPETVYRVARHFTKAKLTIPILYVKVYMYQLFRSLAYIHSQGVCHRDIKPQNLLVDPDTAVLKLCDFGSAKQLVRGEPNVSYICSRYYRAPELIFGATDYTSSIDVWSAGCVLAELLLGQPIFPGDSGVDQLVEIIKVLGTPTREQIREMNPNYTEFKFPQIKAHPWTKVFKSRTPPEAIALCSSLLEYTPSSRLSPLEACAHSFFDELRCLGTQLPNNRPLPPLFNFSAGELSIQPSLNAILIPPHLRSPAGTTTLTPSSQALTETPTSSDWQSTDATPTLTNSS
Protocol: as §1
The inhibitory activities of the compound of the invention against the GSK 3α enzyme isoform (Invitrogen), are evaluated by determining the level of activation/phosphorylation of the target peptide. The GSK3-α protein (500 ng/mL, 2.5 μL) is mixed with the test compound (2.5 μL at either 4 μg/mL, 0.4 μg/mL, 0.04 μg/mL, or 0.004 μg/mL) for 2 hr at RT. The FRET peptide (8 μM, 2.5 μL), which is a phosphorylation target for GSK3α, and ATP (40 μM, 2.5 μL) are then added to the enzyme/compound mixture and the resulting mixture incubated for 1 hr. Development reagent (protease, 5 μL) is added for 1 hr prior to detection in a fluorescence microplate reader (Varioskan® Flash, ThermoFisher Scientific).
as §2, with “levels. […]” for “levels.”

hERG = hERG (Homo sapiens (Human), UniProt Q12809); assay: hERG inhibition, IonWorks patch clamp electrophysiology; assay type: cell-based; conditions: human; Top Concentration 3 μM
Sequence of hERG (Q12809 whole entry): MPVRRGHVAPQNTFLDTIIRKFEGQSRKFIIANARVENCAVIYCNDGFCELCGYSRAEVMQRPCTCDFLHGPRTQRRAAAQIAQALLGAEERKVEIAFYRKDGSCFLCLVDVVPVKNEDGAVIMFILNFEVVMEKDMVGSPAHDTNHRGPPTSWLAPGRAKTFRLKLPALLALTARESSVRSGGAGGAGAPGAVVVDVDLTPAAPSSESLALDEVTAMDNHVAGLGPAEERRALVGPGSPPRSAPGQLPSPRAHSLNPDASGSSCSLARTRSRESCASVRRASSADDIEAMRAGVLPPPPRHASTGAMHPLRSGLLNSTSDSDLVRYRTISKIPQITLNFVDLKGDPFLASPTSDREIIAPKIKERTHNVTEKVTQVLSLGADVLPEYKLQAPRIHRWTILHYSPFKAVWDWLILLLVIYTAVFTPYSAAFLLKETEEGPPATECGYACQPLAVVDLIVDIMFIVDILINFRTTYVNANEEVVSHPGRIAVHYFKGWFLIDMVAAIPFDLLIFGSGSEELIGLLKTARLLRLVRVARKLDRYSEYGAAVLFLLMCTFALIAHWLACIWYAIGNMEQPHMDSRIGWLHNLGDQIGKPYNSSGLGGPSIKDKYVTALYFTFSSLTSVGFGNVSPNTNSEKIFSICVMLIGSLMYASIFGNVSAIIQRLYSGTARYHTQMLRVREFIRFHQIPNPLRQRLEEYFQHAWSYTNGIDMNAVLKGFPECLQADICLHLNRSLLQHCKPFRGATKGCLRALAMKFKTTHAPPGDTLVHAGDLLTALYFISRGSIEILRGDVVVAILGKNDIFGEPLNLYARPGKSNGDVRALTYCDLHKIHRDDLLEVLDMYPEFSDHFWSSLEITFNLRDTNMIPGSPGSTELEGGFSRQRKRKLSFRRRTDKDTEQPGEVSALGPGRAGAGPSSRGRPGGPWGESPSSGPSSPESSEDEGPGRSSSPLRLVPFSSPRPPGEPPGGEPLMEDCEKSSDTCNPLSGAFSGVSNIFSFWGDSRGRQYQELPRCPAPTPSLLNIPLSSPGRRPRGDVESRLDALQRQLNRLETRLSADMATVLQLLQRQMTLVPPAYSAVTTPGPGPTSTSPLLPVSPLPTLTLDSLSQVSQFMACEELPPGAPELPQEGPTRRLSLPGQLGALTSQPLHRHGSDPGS
Protocol: (§3) The compound of the invention was tested for inhibition of the human ether a go-go (hERG) channel using IonWorks™ patch clamp electrophysiology at Essen Bioscience (Welwyn Garden City, England).

[2] = target: human ether a go-go (hERG) channel (Homo sapiens (Human), UniProt Q12809); assay: as above; assay type: cell-based; conditions: IonWorks patch clamp
Sequence of human ether a go-go (hERG) channel (Q12809 whole entry): as above
Protocol: as §3

[3] = Systemic pharmacokinetics and total colon tissue distribution after single oral administration; assay type: in vivo, mouse; conditions: mice, single oral administration
Protocol: Studies were conducted by Sai Life Sciences (Hinjewadi, Pune, India) to investigate the systemic pharmacokinetics and total colon tissue distribution of the compound of the invention. In particular, pharmacokinetic studies were carried out in male C57BL/6 mice following a single oral administration of the compound.

Jurkat cells = assay: Cell cytotoxicity assay (assay r); assay type: cell-based, human
Protocol: 1×10^5 Jurkat cells (immortalised human T lymphocytes) are added to the appropriate number of wells of a 96 well plate in 100 μL of media (RPMI supplemented with 10% foetal bovine serum). 1 μL of DMSO control (final concentration 1.0% v/v) or test compound (final concentration 20, 5 or 1 μg/mL) is added to the wells and incubated at 37° C., 5% CO2. After 24 hours, the plate is centrifuged at 1200 rpm for 3 minutes and the supernatant discarded. Cells are then resuspended in 150 μL (final concentration 7.5 μg/mL) of propidium iodide (PI) in PBS and incubated at 37° C., 5% CO2 for 15 minutes. After 15 minutes, cells are analysed by flow cytometry (BD accuri) using the FL3 window. The % viability is calculated as the % of cells that are PI negative in the test wells normalised to the DMSO control.

## COc1cc(Nc2cc(Oc3ccc(NC(=O)Nc4cc(C(C)(C)C)cc(NS(C)(=O)=O)c4OC)c4ccccc34)ccn2)ccc1C(=O)O [Example 1, 4-((4-((4-(3-(5-(tert-Butyl)-2-methoxy-3-(methylsulfonamido)phenyl)ureido)naphthalen-1-yl)oxy)pyridin-2-yl)amino)-2-methoxybenzoic acid]
Syk
  IC50: 5 nM
[1]; fasted-state simulated colonic fluid (FaSSCoF), 25 °C, fassgf or other biorelevant, thermodynamic from solid, pH 6.5, text summary, read-out: solubilities in the FaSSCoF medium at pH 6.5
  solubility at 24 h: > 10 µg/mL
[1]; fasted-state simulated colonic fluid (FaSSCoF), 25 °C, pH 6.5, fassgf or other biorelevant, thermodynamic from solid, pH 6.5, 25° C., 24 h, read-out: pH 6.5 FaSSCoF Solubility Run 3
  solubility thermodynamic at 24 h: 10 µg/mL (≈ 14.3 µM)
[1]; pH 6.5, 25° C., 24 h
  pH 6.5 FaSSCoF Solubility Run 1: 0.016 mg/mL
  pH 6.5 FaSSCoF Solubility Run 2: 0.018 mg/mL
  pH 6.5 FaSSCoF Solubility Run 4: 0.011 mg/mL
GSK3α
  IC50: 115 nM
hERG
  inhibition at 3 µM: -4%
[2]
  IC50: > 3300 nM
[3]
  systemic plasma or blood exposures: very low or negligible
Jurkat cells; 1 μg/mL, 24 hours
  % Viability at 1 μg/mL: 94.6%
Jurkat cells; 5 μg/mL, 24 hours
  % Viability at 5 μg/mL: 96.1%
Jurkat cells; 20 μg/mL, 24 hours
  % Viability at 20 μg/mL: 95.8%
Jurkat cells; assay (r)
  cytotoxicity compared with Reference Compound: substantially less cytotoxic than the Reference Compound
